Consider 18 compounds from patent publication US12421211B2, “Heterocyclic compounds” (Hoffmann-La Roche Inc., priority 2021, dated 2025).

Where a name gives a salt, the structure may show the parent alone.

One assay has as its system Acinetobacter baumannii ATCC17961. Briefly: Antimicrobial susceptibility testing: 90% growth inhibitory concentration (IC90) determination. The following applies: 90% growth inhibitory concentration, Acinetobacter baumannii ATCC17961, Iso-Sensitest broth, OD 600 nm over 16 h; read-out: ATCC 17961 IC90. Format: cell-based. A digest of the protocol: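 Growth inhibition derived in log phase from OD600 kinetics (every 20 minutes, 16h, 35±2° C) of ATCC17961 in Iso-Sensitest medium, inoculum ~5×10^5 CFU/ml. Compounds tested as twofold series, 10 points (e.g. 50 to 0.097 μM final); IC90 and IC50 reported.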
A word on the IC90: it is the concentration needed for an effect of 90%. On to `Cc1nn(CC(=O)Nc2ccc(F)nn2)cc1-c1ccc(-c2cnc(C(=O)Nc3ccc(C(=O)N4CCN(C(=O)C5CC[N+](CC(=O)O)(CC6CNC6)CC5)CC4)c(Cl)c3)n2C)c(F)c1F` (stereo not drawn) [Example L6, cis 2-[1-(azetidin-3-ylmethyl)-4-[4-[2-chloro-4-[[5-[2,3-difluoro-4-[1-[2-[(6-fluoropyridazin-3-yl)aminol-2-oxo-ethyl]-3-methyl-pyrazol-4-yl]phenyl]-methyl-imidazole-2-carbonyl]amino]benzoyl]piperazine-1-carbonyl]piperidin-1-ium-1-yl]acetic acid; formate], for which the IC90 is 197 nM.

Staying with this assay, now noted: Acinetobacter baumannii, ATCC17961, 16 h, 90% growth inhibitory concentration, Acinetobacter baumannii ATCC17961, Iso-Sensitest broth, OD 600 nm over 16 h; read-out: ATCC 17961 IC90.
For the compound `COCCn1cc(-c2ccc(-c3cnc(C(=O)Nc4ccc(C(=O)N5CCN(C(=O)C6CC[N+](C)(CC(N)=O)CC6)CC5)c(Cl)c4)n3C)c(F)c2F)c(C)n1` (stereo not drawn) [Example B2, N-[4-[4-[1-(2-amino-2-oxo-ethyl)-1-methyl-piperidin-1-ium-4-carbonyl]piperazine-1-carbonyl]-3-chloro-phenyl]-5-[2,3-difluoro-4-[1-(2-methoxyethyl)-3-methyl-pyrazol-4-yl]phenyl]-1-methyl-imidazole-2-carboxamide; formate], the IC90 came out at 120 nM. As for `COCCn1ncc(-c2ccc(-c3cnc(C(=O)Nc4ccc(C(=O)N5CCN(C(=O)C6CC[N+](C)(CC7CNC7)CC6)CC5)c(Cl)c4)n3C)c(F)c2F)c1C` (stereo not drawn) [Example B21, N-[4-[4-[1-(azetidin-3-ylmethyl)-1-methyl-piperidin-1-ium-4-carbonyl]piperazine-1-carbonyl]-3-chloro-phenyl]-5-[2,3-difluoro-4-[1-(2-methoxyethyl)-5-methyl-pyrazol-4-yl]phenyl]-1-methyl-imidazole-2-carboxamide; formic acid; formate], the IC90 was 100 nM. The same measure, in the same setting: the value for `COCCn1ncc(-c2ccc(-c3cnc(C(=O)Nc4ccc(C(=O)N5CCN(C(=O)C6CC[N+](C)(C)CC6)CC5)c(Cl)c4)n3C)c(F)c2F)c1C` [Example A4, N-[3-chloro-4-[4-(1,1-dimethylpiperidin-1-ium-4-carbonyl)piperazine-1-carbonyl]phenyl]-5-[2,3-difluoro-4-[1-(2-methoxyethyl)-5-methyl-pyrazol-4-yl]phenyl]-1-methyl-imidazole-2-carboxamide; formate] was 110 nM; that for `Cc1nn(Cc2ccc(N)cn2)cc1-c1ccc(-c2cnc(C(=O)Nc3ccc(C(=O)N4CCN(C(=O)C5CC[N+](C)(C)CC5)CC4)c(Cl)c3)n2C)c(F)c1F` [Example F43, 5-[4-[1-[(5-amino-2-pyridyl)methyl]-3-methyl-pyrazol-4-yl]-2,3-difluoro-phenyl]-N-[3-chloro-4-[4-(1,1-dimethylpiperidin-1-ium-4-carbonyl)piperazine-1-carbonyl]phenyl]-1-methyl-imidazole-2-carboxamide; chloride] was 570 nM. Still for that read-out and setting: the value for `Cc1nn(CC(=O)Nc2nccs2)cc1-c1ccc(-c2cnc(C(=O)Nc3ccc(C(=O)N4CCN(C(=O)C5CC[N+](C)(C)CC5)CC4)c(Cl)c3)n2C)c(F)c1F` [Example G10, N-[3-chloro-4-[4-(1,1-dimethylpiperidin-1-ium-4-carbonyl)piperazine-1-carbonyl]phenyl]-5-[2,3-difluoro-4-[3-methyl-1-[2-oxo-2-(thiazol-2-ylamino)ethyl]pyrazol-4-yl]phenyl]-1-methyl-imidazole-2-carboxamide; formate] was 120 nM; that for `Cc1nn(CCCC#N)c(C)c1-c1ccc(-c2cnc(C(=O)Nc3ccc(C(=O)N4CCN(C(=O)[C@@H]5C[C@@H](O)C[N+]5(C)C)CC4)c(Cl)c3)n2C)c(F)c1F` [Example F58, N-[3-chloro-4-[4-[(2S,4R)-4-hydroxy-1,1-dimethyl-pyrrolidin-1-ium-2-carbonyl]piperazine-1-carbonyl]phenyl]-5-[4-[1-(3-cyanopropyl)-3,5-dimethyl-pyrazol-4-yl]-2,3-difluoro-phenyl]-1-methyl-imidazole-2-carboxamide; formate] was 480 nM.

`COCCn1ncc(-c2ccc(-c3cnc(C(=O)Nc4ccc(C(=O)N5CCN(C(=O)C6CCNC(=O)C6)CC5)c(Cl)c4)n3C)c(F)c2F)c1C` (stereo not drawn) [Example D27, N-[3-chloro-4-[4-(2-oxopiperidine-4-carbonyl)piperazine-1-carbonyl]phenyl]-5-[2,3-difluoro-4-[1-(2-methoxyethyl)-5-methyl-pyrazol-4-yl]phenyl]-1-methyl-imidazole-2-carboxamide; 2,2,2-trifluoroacetic acid]: the IC90 stood at 230 nM. For the compound `Cc1nn(CC(=O)Nc2ccc(F)cc2)cc1-c1ccc(-c2cnc(C(=O)Nc3ccc(C(=O)N4CCN(C(=O)C5CC[N+](C)(C)CC5)CC4)c(Cl)c3)n2C)c(F)c1F` [Example G8, N-[3-chloro-4-[4-(1,1-dimethylpiperidin-1-ium-4-carbonyl)piperazine-1-carbonyl]phenyl]-5-[2,3-difluoro-4-[1-[2-(4-fluoroanilino)-2-oxo-ethyl]-3-methyl-pyrazol-4-yl]phenyl]-1-methyl-imidazole-2-carboxamide; formate], the IC90 stood at 84 nM.

With `Cc1c(-c2ccc(-c3cnc(C(=O)Nc4ccc(C(=O)N5CCN(C(=O)C6CC[N+](C)(C)CC6)CC5)c(Cl)c4)n3C)c(F)c2F)cnn1CC(=O)Nc1cccnn1` [Example G25, N-[3-chloro-4-[4-(1,1-dimethylpiperidin-1-ium-4-carbonyl)piperazine-1-carbonyl]phenyl]-5-[2,3-difluoro-4-[5-methyl-1-[2-oxo-2-(pyridazin-3-ylamino)ethyl]pyrazol-4-yl]phenyl]-1-methyl-imidazole-2-carboxamide; formate], the IC90 stood at 1000 nM. On the same count and under the same terms, for `COCCn1ncc(-c2ccc(-c3cnc(C(=O)Nc4ccc(C(=O)N5CCN(C(=O)C6CC[N+](C)(C)CC6)CC5)c(Cl)c4)n3C)c(C)c2)c1C` [Example F19, N-[3-chloro-4-[4-(1,1-dimethylpiperidin-1-ium-4-carbonyl)piperazine-1-carbonyl]phenyl]-5-[4-[1-(2-methoxyethyl)-5-methyl-pyrazol-4-yl]-2-methyl-phenyl]-1-methyl-imidazole-2-carboxamide; formate] the value was 330 nM; for `COCCn1ncc(-c2ccc(-c3cnc(C(=O)Nc4ccc(C(=O)N5CCN(C(=O)C6CCNCC6)CC5)c(Cl)c4)n3C)c(F)c2F)c1C` [Example E11, N-[3-chloro-4-[4-(piperidine-4-carbonyl)piperazine-1-carbonyl]phenyl]-5-[2,3-difluoro-4-[1-(2-methoxyethyl)-5-methyl-pyrazol-4-yl]phenyl]-1-methyl-imidazole-2-carboxamide; 2,2,2-trifluoroacetic acid], 61 nM; for `Cn1c(-c2ccc(-c3ccc(N)cn3)c(F)c2F)cnc1C(=O)Nc1ccc(C(=O)N2CCN(C(=O)C3CC[N+](C)(C)CC3)CC2)c(Cl)c1` [Example F65, 5-[4-(5-amino-2-pyridyl)-2,3-difluoro-phenyl]-N-[3-chloro-4-[4-(1,1-dimethylpiperidin-1-ium-4-carbonyl)piperazine-1-carbonyl]phenyl]-1-methyl-imidazole-2-carboxamide; formate], 370 nM.

For `Cc1c(-c2ccc(-c3cnc(C(=O)Nc4ccc(C(=O)N5CCN(C(=O)C6CC[N+](C)(C)CC6)CC5)c(Cl)c4)n3C)c(F)c2F)cnn1CCNC(=O)Nc1ccccn1` [Example H6, N-[3-chloro-4-[4-(1,1-dimethylpiperidin-1-ium-4-carbonyl)piperazine-1-carbonyl]phenyl]-5-[2,3-difluoro-4-[5-methyl-1-[2-(2-pyridylcarbamoylamino)ethyl]pyrazol-4-yl]phenyl]-1-methyl-imidazole-2-carboxamide; formate], the concentration for an effect of 90% (IC90) was found to be 170 nM. Consider `COCCn1ncc(-c2ccc(-c3cnc(C(=O)Nc4ccc(C(=O)N5CCN(C(=O)C6CC[N+](CC(=O)O)(CC7CNC7)CC6)CC5)c(Cl)c4)n3C)c(C)c2F)c1C` (stereo not drawn) [Example B39, 2-[1-(azetidin-3-ylmethyl)-4-[4-[2-chloro-4-[[5-[3-fluoro-4-[1-(2-methoxyethyl)-5-methyl-pyrazol-4-yl]-2-methyl-phenyl]-1-methyl-imidazole-2-carbonyl]amino]benzoyl]piperazine-1-carbonyl]piperidin-1-ium-1-yl]acetic acid; formate], for which the IC90 is 250 nM.

Still in this assay, the particulars now being: Acinetobacter baumannii, ATCC17961, 16 h, read-out: ATCC 17961 IC90.
On to `Cc1nn(CC(=O)NC23CC(C#N)(C2)C3)cc1-c1ccc(-c2cnc(C(=O)Nc3ccc(C(=O)N4CCN(C(=O)C5CC[N+](C)(C)CC5)CC4)c(Cl)c3)n2C)c(F)c1F` [Example G4, N-[3-chloro-4-[4-(1,1-dimethylpiperidin-1-ium-4-carbonyl)piperazine-1-carbonyl]phenyl]-5-[4-[1-[2-[(3-cyano-1-bicyclo[1.1.1]pentanyl)amino]-2-oxo-ethyl]-3-methyl-pyrazol-4-yl]-2,3-difluoro-phenyl]-1-methyl-imidazole-2-carboxamide; formate], for which the IC90 turned out to be 190 nM.

In the case of `COCCn1cc(-c2ccc(-c3cnc(C(=O)Nc4ccc(C(=O)N5CCN(C(=O)[C@H]6CC[N@+](CC(=O)O)(CC7CNC7)CC6)CC5)c(C)c4)n3C)cc2F)c(C)n1` [Example O9, cis 2-[1-(azetidin-3-ylmethyl)-4-[4-[4-[[5-[3-fluoro-4-[1-(2-methoxyethyl)-3-methyl-pyrazol-4-yl]phenyl]-1-methyl-imidazole-2-carbonyl]amino]-2-methyl-benzoyl]piperazine-1-carbonyl]piperidin-1-ium-1-yl]acetic acid formate], the IC90 stood at 284 nM. Still for that read-out and setting: for `COc1ccc(NC(=O)Cn2cc(-c3ccc(-c4cnc(C(=O)Nc5ccc(C(=O)N6CCN(C(=O)C7CC[N+](C)(C)CC7)CC6)c(Cl)c5)n4C)c(F)c3F)c(C)n2)nn1` [Example L4, N-[3-chloro-4-[4-(1,1-dimethylpiperidin-1-ium-4-carbonyl)piperazine-1-carbonyl]phenyl]-5-[2,3-difluoro-4-[1-[2-[(6-methoxypyridazin-3-yl)amino]-2-oxo-ethyl]-3-methyl-pyrazol-4-yl]phenyl]-1-methyl-imidazole-2-carboxamide; formate] the value was 106 nM.
